Assay results as given in article PMC6753110, “Fragment-based discovery of the first nonpeptidyl inhibitor of an S46 family peptidase” (Scientific Reports, 2019).
Several values for one entry are separate records, joined by “and”; a condition that tells them apart may be missing. Equal entries are not always repeated. Where two headings read alike, the source gives them in different places.

Experiments:
PgDPP11 = molecular target: T1, PgDPP11 (Porphyromonas gingivalis, UniProt B2RID1); assay: Inhibition of PgDPP11 enzymatic activity on Leu-Asp-MCA; format: biochemical; conditions: for Ki: Cheng-Prusoff equation; for remaining activity at 100 µM: inhibitor and synthetic substrate (Leu-Asp-MCA) 100 µM, 100% = activity without inhibitor, read-out: Residual activity (%)
T1 construct: signal peptide of DAP BIII (Pseudoxanthomonas mexicana WO24) (N, cleaved yes); made in house; host or cells: E. coli BL21 Gold(DE3), pET22b
Experimental: We evaluated the inhibitory effects of the 13 commercially available candidate compounds obtained by the in silico screening described above against the enzymatic activity of PgDPP11 on the synthetic substrate Leu-Asp-MCA (4-methylcoumaryl-7-amide) (Fig. 5). Each compound was first tested at a concentration of 100 μM.
Figure 5 Inhibitory effects of 13 candidate compounds obtained by multifilter in silico screening. […] Standard deviations were obtained from three independent experiments.
(§1) Thirteen of fifteen final candidate compounds from the in silico screening described above were purchased from Namiki Shoji Co., Ltd. (Tokyo, Japan). Half-maximal inhibitory concentration (IC50) values were determined by fitting to a sigmoidal curve (4-parameter logistic curve) using ImageJ[60] Competitive inhibition rates were measured using different concentrations of each inhibitor in a reaction buffer containing 50 mM sodium phosphate buffer (pH 8.0), 5 mM EDTA and 0.005% Tween 20 at 298 K for 20 min and using 100 µM Leu-Asp-MCA (4-methylcoumaryl-7-amide) as the substrate for DPP11s. For DPP7s, 100 µM Met-Leu-MCA was used as the substrate. The concentrations of PgDPP11, PgDPP7, SmDPP11 and SmDPP7 were 1, 10, 0.5 and 5 nM, respectively. The inhibitor concentrations were 1000, 500, 250, 125, 62.5, 31.3 and 15.6 µM. Standard deviations were calculated from three independent experiments. Fluorescence intensity was measured with excitation at 355 nm and emission at 460 nm using an Infinite 200 PRO microplate reader. Inhibition constants (Ki) were calculated using the Cheng-Prusoff equation[61].

E. coli strain K12 = assay: Antibacterial assay, growth of E. coli (OD 600 nm); format: cell-based; conditions: at the concentrations used for the inhibition of P. gingivalis growth
Experimental: (§2) The inhibitory effects of SH-5 and the lipophilic analog NPPB against growth of P. gingivalis strain W83 were evaluated by monitoring optical density at 600 nm (Fig. 6, closed squares). […] The maximal percent inhibition values for SH-5 and NPPB were 68% at 1 mM and 99% at 100 μM, respectively.
(§3) Antibacterial assays against P. gingivalis strain W83 and E. coli strain K12 were performed as previously described[62],[63]. P. gingivalis cells were cultured in anaerobic bacterium culture medium (ABCM, Eiken Chemical, Tokyo, Japan) containing 0.001% menadione under anaerobic conditions at 37 °C for 48 h. E. coli cells were grown in M9 medium with 1% glucose with shaking at 37 °C for 24 h. All compounds were dissolved in DMSO at stock concentrations of 100 mM. […] Growth of P. gingivalis and E. coli with compounds was determined as the optical density at 600 nm after incubation.

SmDPP11 = SmDPP11 (Stenotrophomonas maltophilia, UniProt B4SNQ8); assay: Inhibition of SmDPP11 enzymatic activity on Leu-Asp-MCA; format: biochemical; conditions: for Ki / remaining activity at 100 µM: SmDPP11; for Ki: Cheng-Prusoff equation, 100 µM Leu-Asp-MCA; for remaining activity at 100 µM: inhibitor and synthetic substrate (Leu-Asp-MCA) 100 µM, 100% = activity without inhibitor, read-out: Residual activity (%)
Source text: (§4) To examine whether SH-5 is a universal inhibitor of S46 peptidases or is specific for PgDPP11, we evaluated the inhibitory effects of SH-5 against PgDPP7. In addition, the inhibitory effects of SH-5 against DPP7 and DPP11 from Stenotrophomonas maltophilia (SmDPP7 and SmDPP11, respectively) were also examined as another reference set of S46 peptidases in the same organism.
as §1

PgDPP7 = PgDPP7 (Porphyromonas gingivalis, UniProt Q7MWU6); assay: Inhibition of PgDPP7 enzymatic activity on Met-Leu-MCA; format: biochemical; conditions: for remaining activity at 100 µM: read-out: Residual activity (%)
Source text: as §4, §1

P. gingivalis strain W83 = assay: Antibacterial assay, growth of P. gingivalis (OD 600 nm); format: cell-based; conditions: Porphyromonas gingivalis; for IC50: strain W83, optical density at 600 nm, 48 h anaerobic, read-out: IC50, inhibition of growth of P. gingivalis
Experimental: as §2, §3

SmDPP7 = SmDPP7 (Stenotrophomonas maltophilia, UniProt B4SLK2); assay: Inhibition of SmDPP7 enzymatic activity on Met-Leu-MCA; format: biochemical; conditions: for remaining activity at 100 µM: read-out: Residual activity (%)
Source text: as §4, §1

ANO-2 = tested on: ANO-2; design: method as in ref [6] of Table S1; conditions: Mouse, UniProt Q8CFW1; ref [6] of Table S1; cited from earlier work
ClC-6 = tested on: ClC-6; design: method as in ref [3] of Table S1; conditions: Human, UniProt P51797; ref [3] of Table S1; cited from earlier work
BEST-1 = tested on: BEST-1; design: method as in ref [7] of Table S1; conditions: Mouse, UniProt O88870; ref [7] of Table S1; cited from earlier work
ClC-2 = tested on: ClC-2; design: method as in ref [1] of Table S1; conditions: Rat, UniProt P35525; ref [1] of Table S1; cited from earlier work
ClC-7 = tested on: ClC-7; design: method as in ref [4] of Table S1; conditions: Human, UniProt P51798; ref [4] of Table S1; cited from earlier work
ClC-5 = tested on: ClC-5; design: method as in ref [2] of Table S1; conditions: Mouse, UniProt Q9WVD4; ref [2] of Table S1; cited from earlier work
CFTR = tested on: CFTR; design: method as in ref [8] of Table S1; conditions: Xenopus, UniProt P26363; ref [8] of Table S1; cited from earlier work
ANO-1 = tested on: ANO-1; design: method as in ref [5] of Table S1; conditions: Mouse, UniProt Q8BHY3; ref [5] of Table S1; cited from earlier work
ClC-ec1 = tested on: ClC-ec1; design: method as in PMID 23177200; conditions: cited from earlier work

Sequence of SmDPP7 (B4SLK2 entry or part of it): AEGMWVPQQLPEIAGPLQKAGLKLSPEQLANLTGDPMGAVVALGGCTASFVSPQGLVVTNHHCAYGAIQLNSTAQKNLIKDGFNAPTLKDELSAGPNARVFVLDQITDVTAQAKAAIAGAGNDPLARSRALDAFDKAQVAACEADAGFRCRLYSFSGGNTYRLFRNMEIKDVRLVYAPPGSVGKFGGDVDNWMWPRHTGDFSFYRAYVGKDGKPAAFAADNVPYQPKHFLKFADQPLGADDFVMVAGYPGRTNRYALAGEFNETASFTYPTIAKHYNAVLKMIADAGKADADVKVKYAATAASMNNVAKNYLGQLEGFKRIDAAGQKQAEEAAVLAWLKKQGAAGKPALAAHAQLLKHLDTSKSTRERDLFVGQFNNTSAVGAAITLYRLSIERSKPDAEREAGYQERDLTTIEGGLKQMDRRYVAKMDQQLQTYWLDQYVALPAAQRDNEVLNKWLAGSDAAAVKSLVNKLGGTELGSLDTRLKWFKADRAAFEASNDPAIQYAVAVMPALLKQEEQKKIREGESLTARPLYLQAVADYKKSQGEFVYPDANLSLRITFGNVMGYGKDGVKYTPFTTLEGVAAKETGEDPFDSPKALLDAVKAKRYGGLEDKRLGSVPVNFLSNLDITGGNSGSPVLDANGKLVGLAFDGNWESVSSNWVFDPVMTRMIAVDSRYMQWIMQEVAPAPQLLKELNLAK
Sequence of PgDPP7 (Q7MWU6 entry or part of it): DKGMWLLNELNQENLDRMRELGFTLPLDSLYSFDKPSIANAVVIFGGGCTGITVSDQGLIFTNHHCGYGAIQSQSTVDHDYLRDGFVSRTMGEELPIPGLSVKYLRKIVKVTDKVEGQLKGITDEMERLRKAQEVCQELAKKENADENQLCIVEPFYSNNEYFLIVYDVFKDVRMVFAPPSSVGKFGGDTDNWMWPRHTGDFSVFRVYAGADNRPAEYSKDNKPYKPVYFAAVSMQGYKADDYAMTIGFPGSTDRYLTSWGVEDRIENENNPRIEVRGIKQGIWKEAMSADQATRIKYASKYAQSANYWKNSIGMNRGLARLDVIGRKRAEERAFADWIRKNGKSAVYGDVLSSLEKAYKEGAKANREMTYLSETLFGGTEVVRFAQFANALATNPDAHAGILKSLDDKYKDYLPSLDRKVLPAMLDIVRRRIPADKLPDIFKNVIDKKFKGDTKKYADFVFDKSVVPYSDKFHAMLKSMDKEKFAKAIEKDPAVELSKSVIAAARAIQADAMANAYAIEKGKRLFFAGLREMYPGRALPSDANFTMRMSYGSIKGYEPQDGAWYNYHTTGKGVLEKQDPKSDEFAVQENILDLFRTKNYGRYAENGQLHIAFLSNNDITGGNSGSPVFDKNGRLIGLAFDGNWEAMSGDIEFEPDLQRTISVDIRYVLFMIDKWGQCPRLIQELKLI
Sequence of SmDPP11 (B4SNQ8 24-715 limits assumed): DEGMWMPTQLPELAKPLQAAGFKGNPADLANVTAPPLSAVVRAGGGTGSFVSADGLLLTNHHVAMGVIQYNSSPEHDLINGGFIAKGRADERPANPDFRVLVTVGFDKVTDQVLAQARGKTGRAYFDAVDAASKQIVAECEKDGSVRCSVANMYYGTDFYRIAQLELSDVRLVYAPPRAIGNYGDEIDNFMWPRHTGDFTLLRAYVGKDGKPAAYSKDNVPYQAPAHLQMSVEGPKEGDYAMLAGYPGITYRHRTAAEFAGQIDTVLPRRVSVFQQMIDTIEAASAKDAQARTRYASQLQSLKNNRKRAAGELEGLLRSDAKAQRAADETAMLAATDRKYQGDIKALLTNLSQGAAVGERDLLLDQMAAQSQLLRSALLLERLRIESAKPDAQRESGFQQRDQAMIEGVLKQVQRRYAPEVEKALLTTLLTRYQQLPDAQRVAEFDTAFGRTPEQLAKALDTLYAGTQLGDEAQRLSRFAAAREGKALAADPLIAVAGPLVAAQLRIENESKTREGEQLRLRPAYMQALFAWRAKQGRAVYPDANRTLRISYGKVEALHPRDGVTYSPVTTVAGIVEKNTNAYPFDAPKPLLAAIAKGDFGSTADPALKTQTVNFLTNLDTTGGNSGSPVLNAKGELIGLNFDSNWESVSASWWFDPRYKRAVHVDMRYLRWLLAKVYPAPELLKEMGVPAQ
T1 sequence (B2RID1 22-720): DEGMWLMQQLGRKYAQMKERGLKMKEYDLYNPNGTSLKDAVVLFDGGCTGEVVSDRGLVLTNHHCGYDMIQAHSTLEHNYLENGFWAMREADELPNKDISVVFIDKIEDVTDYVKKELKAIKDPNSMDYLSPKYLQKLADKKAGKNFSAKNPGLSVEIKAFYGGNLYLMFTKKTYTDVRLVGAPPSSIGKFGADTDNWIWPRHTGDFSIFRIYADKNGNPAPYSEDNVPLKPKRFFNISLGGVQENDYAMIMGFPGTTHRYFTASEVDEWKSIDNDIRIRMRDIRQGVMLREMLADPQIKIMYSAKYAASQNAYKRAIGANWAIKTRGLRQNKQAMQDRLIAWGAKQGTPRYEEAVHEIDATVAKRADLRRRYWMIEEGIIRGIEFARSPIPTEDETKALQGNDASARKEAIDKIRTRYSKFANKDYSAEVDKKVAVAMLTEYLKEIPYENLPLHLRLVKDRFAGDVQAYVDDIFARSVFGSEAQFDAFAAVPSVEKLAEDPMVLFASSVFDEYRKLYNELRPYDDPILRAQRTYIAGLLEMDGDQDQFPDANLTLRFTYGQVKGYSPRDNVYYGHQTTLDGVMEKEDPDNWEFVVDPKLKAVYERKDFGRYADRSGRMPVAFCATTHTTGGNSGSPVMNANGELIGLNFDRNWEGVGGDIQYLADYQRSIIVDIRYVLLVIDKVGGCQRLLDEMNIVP

| Structure (SMILES) | inhibitory effect against PgDPP11 (in words) (PgDPP11) | toxicity toward E. coli (growth) (E. coli strain K12) | Ki (PgDPP11; PgDPP11, 100 µM Leu-Asp-MCA) | remaining activity at 100 µM (PgDPP11; PgDPP11) [%] | inhibitory effect against SmDPP11 (in words) (SmDPP11) | Ki (SmDPP11) [µM] | remaining activity at 100 µM (SmDPP11) [%] | inhibitory effect against PgDPP7 (in words) (PgDPP7) | IC50 (P. gingivalis strain W83) [µM] | inhibitory effect against SmDPP7 (in words) (SmDPP7) | further results |
| --- | --- | --- | --- | --- | --- | --- | --- | --- | --- | --- | --- |
| NC(=O)c1ccc(SCC(=O)O)c([N+](=O)[O-])c1 [SH-5_3, 2-(4-carbamoyl-2-nitrophenyl)sulfanylacetic acid] | significant but relatively weak inhibitory effect |  |  |  |  |  |  |  |  |  | IC50 (PgDPP11; PgDPP11, dose-response 15.6-1000 μM, 100 µM Leu-Asp-MCA): ~1070 µM |
| NCCNc1ccc([N+](=O)[O-])cc1C(=O)O [SH-5, 2-[(2-aminoethyl)amino]-5-nitrobenzoic acid] | significant inhibitory effects | not toxic | ~8.45 µM and 8.45 µM | 62.9 ± 0.1 | significant inhibitory effects | 24.9 ± 0.5 | 48 ± 1.1 | significant inhibitory effects | 687 | significant inhibitory effects | inhibition at 100 µM (PgDPP11; compound tested at 100 μM, substrate Leu-Asp-MCA, read-out: inhibitory effect against PgDPP11): > 30%; ligand efficiency (LE) (PgDPP11; roughly calculated as LE = 1.37pIC50/HA): 0.346; Ki (PgDPP7; PgDPP7, Cheng-Prusoff equation, 100 µM Met-Leu-MCA): 52.2 ± 3.3 µM; remaining activity at 100 µM (PgDPP7; PgDPP7, inhibitor and synthetic substrate (Met-Leu-MCA) 100 µM, 100% = activity without inhibitor): 54.4 ± 0.7%; inhibition at 1000 µM (P. gingivalis strain W83; P. gingivalis W83, at 1 mM, read-out: maximal percent inhibition of growth): 68%; Ki (SmDPP7; SmDPP7, Cheng-Prusoff equation, 100 µM Met-Leu-MCA): 36.6 ± 1.3 µM; remaining activity at 100 µM (SmDPP7; SmDPP7, inhibitor and synthetic substrate (Met-Leu-MCA) 100 µM, 100% = activity without inhibitor): 72.8 ± 0.7% |
| O=C(O)c1cc([N+](=O)[O-])ccc1NCCCc1ccccc1 [NPPB, 5-nitro-2-(3-phenylpropylamino)benzoic acid] | significant inhibitory effects | not toxic | ~15 µM and 15 µM | 70.3 ± 0.7 | significant inhibitory effects | 84.8 ± 3.1 | 67.7 ± 0.6 | inactive | 6 | inactive | inhibition of ANO-2 (ANO-2): inhibited; inhibition of ClC-6 (ClC-6): inhibited; inhibition of BEST-1 (BEST-1): inhibited; inhibition of ClC-2 (ClC-2): inhibited; remaining activity at 100 µM (PgDPP7): 159 ± 5%; inhibition of ClC-7 (ClC-7): inhibited; inhibition of ClC-5 (ClC-5): inhibited; inhibition of CFTR (CFTR): inhibited; inhibition of ANO-1 (ANO-1): inhibited; inhibition at 100 µM (P. gingivalis strain W83; P. gingivalis W83, at 100 μM, read-out: maximal percent inhibition of growth): 99%; remaining activity at 100 µM (SmDPP7): 119 ± 0.3%; inhibition of ClC-ec1 protein (ClC-ec1): not be inhibited |
